The values below come from patent publication US10905783B2, “Glucosamine and derivatives thereof in imaging” (priority 2015, dated 2021).

The test system of series [1] is TSA and B16 cancer models. The note with it: cited from earlier work.
For series [2], the system named is 4T1 tumor. The experiment in a line: In vivo CEST MRI of 4T1 breast tumors in mice. Further details: species or system mouse. On the procedure:
4T1 mouse mammary tumor cell lines were obtained from ATCC. Cells were cultured in high glucose DMEM supplemented 5% FBS, 5% NCS, NEAA and antibiotics (100 units/ml penicillin and 100 μg/ml streptomycin) at 37° C. in a humidified atmosphere containing 5% CO2.
BALB/C female mice were purchased and kept in the breeding facility of Life Science School, Tel Aviv University. To induce orthotropic xenograph tumors in the mice. 4T1 cells were injected into the lower left mammary gland of 8-week-old (17-22 gram) animals (10^6 cells in 100 μL saline). The tumors were allowed to grow for 10-14 days, reaching an average tumor volume of 5 mm^3. All experiments with animal models were carried out in compliance with the principles of the National Research Council (NRC) and were approved by the institutional animal care and use committee (IACUC) (#M-15-057).
A Bruker 7 Tesla (T) Biospec scanner with 30 cm bore size was used to scan implanted xenograph mammary tumors of mice before and after administration (i.v., i.p. or p.o.) of glucosamine or its derivatives (the glucose analogues were dissolved in saline, pH 7.4). 4T1 or MCF7 tumor-bearing mice, with an average tumor volume of 2-7 mm^3, were fasted overnight with water access, anesthetized with isoflurane (1-2%) and scanned (without surface coil). Their temperature was maintained at 37° C.
At first, T2 RARE anatomical images (RARE factor-8, TR-3000 ms, TE-11.7 ms) were acquired to identify the slice selection with maximum tumor size. The CEST images were generated as follows: a series of T2 RARE images (RARE factor-1, TR-3000 ms, TE-11.7 ms) were collected from a single 1 mm coronal slice of the abdominal area (acquisition matrix before zero filling 128×64, field of view of 40×40 mm^2) after a 2 s presaturation pulse of B1=2.5 μT (106 Hz) at the hydroxyl proton frequency offset of ±1.2 ppm from the water signal. The CEST images were acquired before and after glucosamine or its derivatives administration in order to identify the baseline. The acquisition continued for more than an hour after treatment.
The mean intensities in the selected region of interest (ROI) of the tumor were used for the % CEST plot.

For series [3] the following is noted: cited from earlier work.

Turning to `CC(=O)N[C@H]1C(O)O[C@H](CO)[C@@H](O)[C@@H]1O` (stereo partly drawn) [N-Acetyl-D-glucosamine], the CEST contrast result in series [1] is listed as “increase CEST contrast”.
As for `O=C[C@H](O)[C@@H](O)[C@H](O)[C@H](O)CO` [D-glucose], in series [2] (D-glucose 1000 mg/kg per os, same animal as glucosamine), the “time after administration at which the CEST signal decreased dramatically” value was 30 to 40 min. For the same compound, the “duration of the CEST signal” value in series [2] (PO, 4T1 model) is recorded as “less than an hour”. Further, in series [2] (oral doses of less than 1 g/kg), the CEST signal result is on record as “no significant CEST signal”. The “CEST signal 60 minutes after administering” value in series [2] (same animal, glucosamine at half the dosage of D-glucose) is “no CEST signal was observed”.
As for `O=C[C@H](F)[C@@H](O)[C@H](O)[C@H](O)CO` [FDG, 2-fluoro-deoxy-D-glucose], the toxicity result in series [3] (high concentrations) is on record as “toxic at high concentrations”.
For the compound `O=CC[C@@H](O)[C@H](O)[C@H](O)CO` [2-DG, 2-deoxy-D-glucose], in series [3] (rats), the toxic dose is 3000 mg/kg.
